Measurements as given in ChEMBL document CHEMBL1201862, “PubChem BioAssay data set” (2004).
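Results reflect a 48-hour exposure of cells in 96-well plates to compound at five concentrations. GI50 = concentration required for 50% inhibition of growth.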 Activity calls are given as the source filed them. Cut-off read from the data, not from the text of the source: active = GI50 up to about 1.1 µM and inactive = higher.

Legend:
Assay in all cases: DTP human tumour cell line panel, 48 h
LOX IMVI = test system: LOX IMVI
SR = test system: SR
SF-295 = test system: SF-295
SK-MEL-5 = test system: SK-MEL-5
UACC-257 = test system: UACC-257
A498 = test system: A498
SNB-75 = test system: SNB-75
M14 = test system: M14
Malme-3M = test system: Malme-3M
MDA-MB-435 = test system: MDA-MB-435
HCT-116 = test system: HCT-116
MDA-N = test system: MDA-N
DU-145 = test system: DU-145
OVCAR-4 = test system: OVCAR-4
U-251 = test system: U-251
CCRF-CEM = test system: CCRF-CEM
OVCAR-5 = test system: OVCAR-5
NCI-H460 = test system: NCI-H460
HCT-15 = test system: HCT-15
SN12C = test system: SN12C

Row | SMILES | GI50 (LOX IMVI) | GI50 (SR) | GI50 (SF-295) | GI50 (SK-MEL-5) | GI50 (UACC-257) | GI50 (A498) | GI50 (SNB-75) | GI50 (M14) | GI50 (Malme-3M) | GI50 (MDA-MB-435) | GI50 (HCT-116) | GI50 (MDA-N) | GI50 (DU-145) | GI50 (OVCAR-4) | GI50 (U-251) | GI50 (CCRF-CEM) | GI50 (OVCAR-5) | GI50 (NCI-H460) | GI50 (HCT-15) [µM] | GI50 (SN12C)
1 | O=C(c1c(Cl)cc(Cl)cc1Cl)N(Cc1cccnc1)C(=S)N(Cc1cccnc1)C(=O)c1c(Cl)cc(Cl)cc1Cl | 3.65 µM (inactive) | 6.56 µM (inactive) | 19.4 µM (inactive) | 10.9 µM (inactive) | 7.26 µM (inactive) | 23.8 µM (inactive) | 5.35 µM (inactive) | 4.82 µM (inactive) | 19.5 µM (inactive) | 8.67 µM (inactive) | 2.91 µM (inactive) | 2.15 µM (inactive) | 4.62 µM (inactive) | 2.19 µM (inactive) | 9.02 µM (inactive) | 5.56 µM (inactive) | 18.5 µM (inactive) | 13.4 µM (inactive) | 3.05 | 5.68 µM (inactive)
2 | Cn1c2ccccc2c2cc(-c3ccccc3)c3c(c21)C(=O)C=CC3=O | 18.6 µM (inactive) | 3.31 µM (inactive) | 24 µM (inactive) | 28.3 µM (inactive) | 21.6 µM (inactive) | 22.5 µM (inactive) | 27.6 µM (inactive) | 21.1 µM (inactive) | 19.5 µM (inactive) | 15.1 µM (inactive) | 20.2 µM (inactive) | 19.4 µM (inactive) | 82.8 µM (inactive) | 18.8 µM (inactive) | 18.8 µM (inactive) | 1.59 µM (inactive) | 19 µM (inactive) | 20.6 µM (inactive) | 15.2 | 21.7 µM (inactive)
3 | Cc1cc(C)c2c(=O)n(CC(O)CN3CCN(CCOCCO)CC3)sc2n1 (stereo not given) | 18.8 µM (inactive) | 25.8 µM (inactive) | > 100 µM (inactive) | 15.1 µM (inactive) | 12.2 µM (inactive) | 21.9 µM (inactive) | 1.65 µM (inactive) | 17.8 µM (inactive) | 18.8 µM (inactive) | 17.4 µM (inactive) | 17.1 µM (inactive) | 15.6 µM (inactive) | 30.2 µM (inactive) | 17.9 µM (inactive) | 18.1 µM (inactive) | 11.4 µM (inactive) | 18.9 µM (inactive) | 20.2 µM (inactive) | 42.1 | 18.4 µM (inactive)
4 | C=C(C(N)=O)c1ccc([N+](=O)[O-])o1 | 10.1 µM (inactive) | 9.46 µM (inactive) | 42 µM (inactive) | 5.74 µM (inactive) | 8.51 µM (inactive) | 12.6 µM (inactive) | 9.46 µM (inactive) | 2.82 µM (inactive) | 2.2 µM (inactive) | 2.56 µM (inactive) | 3.97 µM (inactive) | 3 µM (inactive) | 11.4 µM (inactive) | 11.6 µM (inactive) | 15.6 µM (inactive) | 3.22 µM (inactive) | 18.7 µM (inactive) | 19.9 µM (inactive) | 9.02 | 10.3 µM (inactive)
5 | O=C(Nc1ccccc1)N(CCN(Cc1ccccc1)C(=O)Nc1ccccc1)CCN(Nc1ccccc1)C(=O)Nc1ccccc1 | > 100 µM (inactive) | > 100 µM (inactive) | > 100 µM (inactive) | > 100 µM (inactive) | > 100 µM (inactive) | > 100 µM (inactive) | > 100 µM (inactive) | 92.9 µM (inactive) | > 100 µM (inactive) | > 100 µM (inactive) | > 100 µM (inactive) | > 100 µM (inactive) | > 100 µM (inactive) | > 100 µM (inactive) | > 100 µM (inactive) | > 100 µM (inactive) | > 100 µM (inactive) | > 100 µM (inactive) | > 100 | > 100 µM (inactive)
